Experimental findings from patent publication US9024027B2, “Derivatives of 1-phenyl-2-pyridinyl alkyl alcohols as phosphodiesterase inhibitors” (Chiesi Farmaceutici S.p.A., priority 2011, dated 2015) are described below.

Where a name gives a salt, the structure may show the parent alone. A value given as a limit tells only on which side of the number the result lay.

The subject of this test is LPS-induced TNF-α release in peripheral blood mononuclear cells (PBMCs). Kind of test: In vitro determination of PDE4 inhibitory activity in the PBMCs assay (LPS-induced TNF-α release). The following applies: PBMC; human PBMCs, LPS 3 ng/ml, 18 hours; read-out: PDE4 inhibition (IC50, 50% inhibition of LPS-induced TNF-α release). It counts as cell-based. The procedure:
The assay, which is based on the known inhibitory activity exerted by PDE4 inhibitors on the lipopolyshaccarides (LPS)-induced tumour necrosis factor-alpha (TNF-α release in peripheral blood mononuclear cells (PBMCs), was performed according to a method previously described (Hatzelmann A et al., J. Pharmacol. Exp. Ther., 2001; 297:267-279; and Draheim R et al., J. Pharmacol. Exp. Ther., 2004; 308:555-563, both of which are incorporated herein by reference in their entireties. Cryopreserved human PBMCs, (100 μl/well) were incubated in 96-well plates (10^5 cells/well), for 30 minutes, in the presence or absence (50 microl) of the test compounds whose concentrations ranged from 10^−12 M to 10^−6 M or from 10^−13 M to 10^−7 M. Subsequently, LPS (3 ng/ml) was added. After 18 hours of incubation at 37° C. in a humidified incubator under an atmosphere of 95% air and 5% CO2, culture medium was collected and TNF-α measured by ELISA.
The results of the tested compounds, representatives of the invention, expressed as mean±95% confidence limits of the molar concentration of the test compound producing 50% inhibition of LPS-induced TNF-α release (IC50) are shown in the following Table: […]
Usually IC50 stands for the concentration at which inhibition is half-maximal. For the molecule `O=C(CN1C(=O)c2ccccc2S1(=O)=O)O[C@@H](Cc1c(Cl)c[n+]([O-])cc1Cl)c1ccc(OC(F)F)c(OCC2CC2)c1` [Compound 102, (S)-3,5-dichloro-4-(2-(3-(cyclopropylmethoxy)-4-(difluoromethoxy)phenyl)-2-(2-(1,1-dioxido-3-oxobenzo[d]isothiazol-2(3H)-yl)acetoxy)ethyl)pyridine 1-oxide], the IC50 is under 1 nM.

For the molecule `COc1cc2c(cc1OC)CN(CC(=O)O[C@@H](Cc1c(Cl)c[n+]([O-])cc1Cl)c1ccc(OC(F)F)c(OCC3CC3)c1)CC2` [Compound 105, (S)-3,5-dichloro-4-(2-(3-(cyclopropylmethoxy)-4-(difluoromethoxy)phenyl)-2-(2-(6,7-dimethoxy-3,4-dihydroisoquinolin-2(1H)-yl)acetoxy)ethyl)pyridine 1-oxide], the IC50 was under 1 nM.

Regarding `CS(=O)(=O)Nc1ccc2c(c1)CC(=O)N2CC(=O)O[C@@H](Cc1c(Cl)c[n+]([O-])cc1Cl)c1ccc(OC(F)F)c(OCC2CC2)c1` [Compound 112, (S)-3,5-dichloro-4-(2-(3-(cyclopropylmethoxy)-4-(difluoromethoxy)phenyl)-2-(2-(5-(methylsulfonamido)-2-oxoindolin-1-yl)acetoxy)ethyl)pyridine 1-oxide], the IC50 was under 1 nM.

For the molecule `COc1ccc2c(c1)CC(=O)N2CC(=O)O[C@@H](Cc1c(Cl)c[n+]([O-])cc1Cl)c1ccc(OC(F)F)c(OCC2CC2)c1` [Compound 117, (S)-3,5-dichloro-4-(2-(3-(cyclopropylmethoxy)-4-(difluoromethoxy)phenyl)-2-(2-(5-methoxy-2-oxoindolin-1-yl)acetoxy)-ethyl)pyridine 1-oxide], the IC50 is under 1 nM.

As for `CS(=O)(=O)Nc1ccc2c(c1)CCN2CC(=O)O[C@@H](Cc1c(Cl)c[n+]([O-])cc1Cl)c1ccc(OC(F)F)c(OCC2CC2)c1` [Compound 131, (S)-3,5-dichloro-4-(2-(3-(cyclopropylmethoxy)-4-(difluoromethoxy)phenyl)-2-(2-(5-(methylsulfonamido)indolin-1-yl)acetoxy)-ethyl)pyridine 1-oxide], the IC50 lay within 1 to 10 nM.

Regarding `O=C(CN1C(=O)C(=O)c2ccc(N3CCOCC3)cc21)O[C@@H](Cc1c(Cl)c[n+]([O-])cc1Cl)c1ccc(OC(F)F)c(OCC2CC2)c1` [Compound 142, (S)-3,5-dichloro-4-(2-(3-(cyclopropylmethoxy)-4-(difluoromethoxy)phenyl)-2-(2-(6-morpholino-2,3-dioxoindolin-1-yl)acetoxy)ethyl)pyridine 1-oxide], the IC50 fell in the range of 1 to 10 nM.

With `COc1cc2c(cc1OC)C(=O)N(CC(=O)O[C@@H](Cc1c(Cl)c[n+]([O-])cc1Cl)c1ccc(OC(F)F)c(OCC3CC3)c1)C2=O` [Compound 156, (S)-3,5-dichloro-4-(2-(3-(cyclopropylmethoxy)-4-(difluoromethoxy)phenyl)-2-(2-(5,6-dimethoxy-1,3-dioxoisoindolin-2-yl)acetoxy)ethyl)pyridine 1-oxide], the IC50 is under 1 nM.

Consider `CS(=O)(=O)Nc1cccc2c1C(=O)N(CC(=O)O[C@@H](Cc1c(Cl)c[n+]([O-])cc1Cl)c1ccc(OC(F)F)c(OCC3CC3)c1)C2=O` [Compound 162, (S)-3,5-dichloro-4-(2-(3-(cyclopropylmethoxy)-4-(difluoromethoxy)phenyl)-2-(2-(4-(methylsulfonamido)-1,3-dioxoisoindolin-2-yl)acetoxy)ethyl)pyridine 1-oxide], for which the IC50 was under 1 nM.

`CS(=O)(=O)Nc1ccc2c(c1)C(=O)N(CC(=O)O[C@@H](Cc1c(Cl)c[n+]([O-])cc1Cl)c1ccc(OC(F)F)c(OCC3CC3)c1)C2=O` [Compound 167, (S)-3,5-dichloro-4-(2-(3-(cyclopropylmethoxy)-4-(difluoromethoxy)phenyl)-2-(2-(5-(methylsulfonamido)-1,3-dioxoisoindolin-2-yl)acetoxy)ethyl)pyridine 1-oxide]: the IC50 was under 1 nM.

Regarding `O=C(CN1C(=O)c2ccc(NO)cc2C1=O)O[C@@H](Cc1c(Cl)c[n+]([O-])cc1Cl)c1ccc(OC(F)F)c(OCC2CC2)c1` [Compound 169, (S)-3,5-dichloro-4-(2-(3-(cyclopropylmethoxy)-4-(difluoromethoxy)phenyl)-2-(2-(5-(hydroxyamino)-1,3-dioxoisoindolin-2-yl)acetoxy)ethyl)pyridine 1-oxide], the IC50 is under 1 nM.

In the case of `O=C(CN1C(=O)c2cccc(NO)c2C1=O)O[C@@H](Cc1c(Cl)c[n+]([O-])cc1Cl)c1ccc(OC(F)F)c(OCC2CC2)c1` [Compound 170], the IC50 was under 1 nM.

For the molecule `COCC(=O)Nc1cccc2c1C(=O)N(CC(=O)O[C@@H](Cc1c(Cl)c[n+]([O-])cc1Cl)c1ccc(OC(F)F)c(OCC3CC3)c1)C2=O` [Compound 173, (S)-3,5-dichloro-4-(2-(3-(cyclopropylmethoxy)-4-(difluoromethoxy)phenyl)-2-(2-(4-(2-methoxyacetamido)-1,3-dioxoisoindolin-2-yl)acetoxy)ethyl)pyridine 1-oxide], the IC50 was under 1 nM.

`CS(=O)(=O)N(CCN1CCOCC1)c1cccc2c1C(=O)N(CC(=O)O[C@@H](Cc1c(Cl)c[n+]([O-])cc1Cl)c1ccc(OC(F)F)c(OCC3CC3)c1)C2=O` [Compound 176, (S)-3,5-dichloro-4-(2-(3-(cyclopropylmethoxy)-4-(difluoromethoxy)phenyl)-2-(2-(4-(N-(2-morpholinoethyl)methylsulfonamido)-1,3-dioxoisoindolin-2-yl)acetoxy)ethyl)pyridine 1-oxide 2,2,2-trifluoroacetic acid salt]: the IC50 was in the range of 1 to 10 nM.

`CS(=O)(=O)N(CCN1CCOCC1)c1ccc2c(c1)C(=O)N(CC(=O)O[C@@H](Cc1c(Cl)c[n+]([O-])cc1Cl)c1ccc(OC(F)F)c(OCC3CC3)c1)C2=O` [Compound 182, (S)-3,5-dichloro-4-(2-(3-(cyclopropylmethoxy)-4-(difluoromethoxy)phenyl)-2-(2-(5-(N-(2-morpholinoethyl)methylsulfonamido)-1,3-dioxoisoindolin-2-yl)acetoxy)ethyl)pyridine 1-oxide 2,2,2 trifluoroacetic acid salt]: the IC50 was under 1 nM.

For the molecule `CS(=O)(=O)N(CCN1CCCC1)c1ccc2c(c1)C(=O)N(CC(=O)O[C@@H](Cc1c(Cl)c[n+]([O-])cc1Cl)c1ccc(OC(F)F)c(OCC3CC3)c1)C2=O` [Compound 183], the IC50 was under 1 nM.

For the molecule `CS(=O)(=O)N(Cc1cccnc1)c1ccc2c(c1)C(=O)N(CC(=O)O[C@@H](Cc1c(Cl)c[n+]([O-])cc1Cl)c1ccc(OC(F)F)c(OCC3CC3)c1)C2=O` [Compound 186], the IC50 was under 1 nM.

As to `CS(=O)(=O)N(CCN1CCCCC1)c1ccc2c(c1)C(=O)N(CC(=O)O[C@@H](Cc1c(Cl)c[n+]([O-])cc1Cl)c1ccc(OC(F)F)c(OCC3CC3)c1)C2=O` [Compound 189, (S)-3,5-dichloro-4-(2-(3-(cyclopropylmethoxy)-4-(difluoromethoxy)phenyl)-2-(2-(1,3-dioxo-5-(N-(2-(piperidin-1-yl)ethyl)methylsulfonamido)isoindolin-2-yl)acetoxy)ethyl)pyridine 1-oxide], the IC50 is over 10 nM.

With `CS(=O)(=O)N(Cc1ccccn1)c1ccc2c(c1)C(=O)N(CC(=O)O[C@@H](Cc1c(Cl)c[n+]([O-])cc1Cl)c1ccc(OC(F)F)c(OCC3CC3)c1)C2=O` [Compound 190], the IC50 is under 1 nM.

As for `Cc1noc(C)c1CN(c1ccc2c(c1)C(=O)N(CC(=O)O[C@@H](Cc1c(Cl)c[n+]([O-])cc1Cl)c1ccc(OC(F)F)c(OCC3CC3)c1)C2=O)S(C)(=O)=O` [Compound 191], the IC50 was under 1 nM.

`COc1ccnc(CN(c2ccc3c(c2)C(=O)N(CC(=O)O[C@@H](Cc2c(Cl)c[n+]([O-])cc2Cl)c2ccc(OC(F)F)c(OCC4CC4)c2)C3=O)S(C)(=O)=O)c1` [Compound 194]: the IC50 was 1 to 10 nM.

Consider `CN1CCN(CCN(c2ccc3c(c2)C(=O)N(CC(=O)O[C@@H](Cc2c(Cl)c[n+]([O-])cc2Cl)c2ccc(OC(F)F)c(OCC4CC4)c2)C3=O)S(C)(=O)=O)CC1` [Compound 213, (S)-3,5-Dichloro-4-(2-(3-(cyclopropylmethoxy)-4-(difluoromethoxy)-phenyl)-2-(2-(5-(N-(2-(4-methylpiperazin-1-yl)ethyl)methylsulfonamido)-1,3-dioxoisoindolin-2-yl)acetoxy)ethyl)pyridine 1-oxide], for which the half-maximal inhibitory concentration (IC50) was under 1 nM.

Take `CC(=O)N1CCN(CCN(c2ccc3c(c2)C(=O)N(CC(=O)O[C@@H](Cc2c(Cl)c[n+]([O-])cc2Cl)c2ccc(OC(F)F)c(OCC4CC4)c2)C3=O)S(C)(=O)=O)CC1` [Compound 214]: the IC50 is under 1 nM.

Regarding `CS(=O)(=O)N(CCN1CCSCC1)c1ccc2c(c1)C(=O)N(CC(=O)O[C@@H](Cc1c(Cl)c[n+]([O-])cc1Cl)c1ccc(OC(F)F)c(OCC3CC3)c1)C2=O` [Compound 215], the IC50 is under 1 nM.

As for `CS(=O)(=O)N(CCN1CCOCC1)c1ccc2c(ccn2CC(=O)O[C@@H](Cc2c(Cl)c[n+]([O-])cc2Cl)c2ccc(OC(F)F)c(OCC3CC3)c2)c1` [Compound 230, (S)-3,5-dichloro-4-(2-(3-(cyclopropylmethoxy)-4-(difluoromethoxy)phenyl)-2-(2-(5-(N-(2-morpholinoethyl)methylsulfonamido)-1H-indol-1-yl)acetoxy)ethyl)pyridine 1-oxide hydrochloride], the IC50 is under 1 nM.
